Experiment [1] has as its target T1, L-histidine 2-aminobutanoyltransferase (Pseudomonas aeruginosa) (UniProt Q9HUX4).
T1 sequence (whole entry): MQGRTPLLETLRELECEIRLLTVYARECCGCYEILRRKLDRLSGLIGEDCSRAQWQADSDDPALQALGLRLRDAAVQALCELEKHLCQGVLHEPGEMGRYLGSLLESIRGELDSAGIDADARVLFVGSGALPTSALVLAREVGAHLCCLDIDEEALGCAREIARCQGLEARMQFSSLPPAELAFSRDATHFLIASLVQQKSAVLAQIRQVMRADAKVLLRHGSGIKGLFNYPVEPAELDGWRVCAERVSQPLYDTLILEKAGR
As to the kind of experiment: Induction of thermal stabilization of N-terminal his6-tagged Pseudomonas aeruginosa CntL assessed as increase in melting temperature at 500 uM by fluorescence-based thermal shift assay.

Experiment [2] concerns the target T1, L-histidine 2-aminobutanoyltransferase (Pseudomonas aeruginosa). As to the kind of experiment: Binding affinity to N-terminal his6-tagged Pseudomonas aeruginosa CntL assessed as change in enthalpy by ITC analysis. On the technique in general: In ITC the heat of successive injections is recorded.
The target of experiment [3] is T2, D-histidine 2-aminobutanoyltransferase (Staphylococcus aureus (strain Mu50 / ATCC 700699)) (UniProt A0A0H3JXA8).
T2 sequence (whole entry): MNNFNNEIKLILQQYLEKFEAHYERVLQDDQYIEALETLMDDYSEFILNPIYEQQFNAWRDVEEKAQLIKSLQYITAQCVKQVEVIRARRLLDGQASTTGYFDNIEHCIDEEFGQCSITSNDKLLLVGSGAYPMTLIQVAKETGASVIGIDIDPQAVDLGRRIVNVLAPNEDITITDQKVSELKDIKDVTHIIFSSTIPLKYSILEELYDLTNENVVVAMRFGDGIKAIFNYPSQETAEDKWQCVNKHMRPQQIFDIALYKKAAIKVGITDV
In words: Binding affinity to N-terminal his6-tagged Staphylococcus aureus ATCC 700699 CntL assessed as change in entropy by ITC analysis.

Experiment [4] has as its target T1, L-histidine 2-aminobutanoyltransferase (Pseudomonas aeruginosa). As to the kind of experiment: Binding affinity to N-terminal his6-tagged Pseudomonas aeruginosa CntL assessed as change in gibbs free energy by ITC analysis.
In experiment [5] the target is T2, D-histidine 2-aminobutanoyltransferase (Staphylococcus aureus (strain Mu50 / ATCC 700699)). In words: Induction of thermal stabilization of Staphylococcus aureus ATCC 700699 CntL assessed as change in melting temperature at 100 uM by fluorescence-based thermal shift assay.
Experiment [6] has as its target T1, L-histidine 2-aminobutanoyltransferase (Pseudomonas aeruginosa). As to the kind of experiment: Binding affinity to N-terminal his6-tagged Pseudomonas aeruginosa CntL assessed as change in entropy by ITC analysis.
Experiment [7] addresses T3, D-histidine 2-aminobutanoyltransferase (Staphylococcus aureus (strain Mu50 / ATCC 700699), UniProt A0A0H3JXA8).
T3 sequence (A0A0H3JXA8 whole entry): T2 sequence (whole entry)
As to the kind of experiment: Inhibition of N-terminal his6-tagged Staphylococcus aureus ATCC 700699 CntL using SAM as substrate preincubated with compound for 10 mins followed by substrate addition and measured after 25 mins in presence of NADPH by microplate reader analysis.

For experiment [8], the target named is T4, L-histidine 2-aminobutanoyltransferase (Pseudomonas aeruginosa, UniProt Q9HUX4).
T4 sequence (Q9HUX4 whole entry): T1 sequence (whole entry)
In words: Binding affinity to N-terminal his6-tagged Pseudomonas aeruginosa CntL assessed as dissociation constant by ITC analysis.

Experiment [9] addresses T3, D-histidine 2-aminobutanoyltransferase. As to the kind of experiment: Binding affinity to N-terminal his6-tagged Staphylococcus aureus ATCC 700699 CntL assessed as dissociation constant by ITC analysis.
The target of experiment [10] is T2, D-histidine 2-aminobutanoyltransferase (Staphylococcus aureus (strain Mu50 / ATCC 700699)). As to the kind of experiment: Binding affinity to N-terminal his6-tagged Staphylococcus aureus ATCC 700699 CntL assessed as gibbs free energy change by ITC analysis.
The target is the same in experiment [11]. As to the kind of experiment: Inhibition of N-terminal his6-tagged Staphylococcus aureus ATCC 700699 CntL at 5 uM using SAM as substrate preincubated with compound for 10 mins followed by substrate addition and measured after 25 mins in presence of NADPH by microplate reader analysis relative to control. The settings on record: time 35.0 min.
For experiment [12] the target is unchanged. As to the kind of experiment: Induction of thermal stabilization of Staphylococcus aureus ATCC 700699 CntL assessed as change in melting temperature by fluorescence-based thermal shift assay.
The target is the same in experiment [13]. As to the kind of experiment: Binding affinity to N-terminal his6-tagged Staphylococcus aureus ATCC 700699 CntL assessed as change in enthalpy by ITC analysis.
Experiment [14] concerns Staphylococcus aureus. As to the kind of experiment: Antibacterial activity against Staphylococcus aureus […] assessed as effect on bacterial growth at 100 uM incubated for 12 hrs in presence of LB medium. The class given is functional, organism-based.
The target of experiment [15] is T2, D-histidine 2-aminobutanoyltransferase (Staphylococcus aureus (strain Mu50 / ATCC 700699)). As to the kind of experiment: Inhibition of N-terminal his6-tagged Staphylococcus aureus ATCC 700699 CntL assessed as reduction in intracellular iron level at 100 uM by ICP-MS analysis. In kind it is cell-based.
Experiment [16] has the same target. As to the kind of experiment: Inhibition of N-terminal his6-tagged Staphylococcus aureus ATCC 700699 CntL assessed as reduction in intracellular nickel ion level at 100 uM by ICP-MS analysis. In kind it is cell-based.
Experiment [17] has as its system Staphylococcus aureus. As to the kind of experiment: Antibacterial activity against Staphylococcus aureus […] assessed as effect on bacterial growth at 100 uM incubated for 12 hrs in presence of dCDM medium. In kind it is functional, organism-based.
In experiment [18] the target is T2, D-histidine 2-aminobutanoyltransferase (Staphylococcus aureus (strain Mu50 / ATCC 700699)). As to the kind of experiment: Inhibition of N-terminal his6-tagged Staphylococcus aureus ATCC 700699 CntL assessed as reduction in intracellular cobalt ion level at 100 uM by ICP-MS analysis. In kind it is cell-based.
The test system of experiment [19] is Staphylococcus aureus. In words: Antibacterial activity against Staphylococcus aureus […] assessed as effect on bacterial growth at 100 uM incubated for 12 hrs in presence of chemically defined medium. The class given is functional, organism-based.
The target of experiment [20] is T2, D-histidine 2-aminobutanoyltransferase (Staphylococcus aureus (strain Mu50 / ATCC 700699)). As to the kind of experiment: Induction of thermal stabilization of Staphylococcus aureus ATCC 700699 CntL assessed as change in melting temperature in presence of histidine by fluorescence-based thermal shift assay.
Experiment [21] has the same target. As to the kind of experiment: Induction of thermal stabilization of Staphylococcus aureus ATCC 700699 CntL assessed as melting temperature in presence of D-His by fluorescence-based thermal shift assay.
The target is the same in experiment [22]. As to the kind of experiment: Induction of thermal stabilization of Staphylococcus aureus ATCC 700699 CntL assessed as melting temperature in presence of xNA by fluorescence-based thermal shift assay.
Experiment [23] shares this target. As to the kind of experiment: Induction of thermal stabilization of Staphylococcus aureus ATCC 700699 CntL assessed as melting temperature by fluorescence-based thermal shift assay.
Experiment [24] shares this target. In words: Induction of thermal stabilization of Staphylococcus aureus ATCC 700699 CntL assessed as melting temperature in presence of L-His by fluorescence-based thermal shift assay.

Each structure is given as a SMILES string. Calls of active or inactive are those of the source. The rule behind the calls is not given here.

For the compound `Nc1ncnc2c1ncn2[C@@H]1O[C@H](CSCCCN[C@@H](Cc2c[nH]cn2)C(=O)O)[C@@H](O)[C@H]1O`, the outcome in experiment [1] was Active. The deltaH in experiment [2] is -8.65 kcal/mol; in experiment [13], -18.3 kcal/mol. For the same compound, the values for the -TdeltaS in [3] and in experiment [6] were 9.07 kcal/mol and 0.149 kcal/mol, respectively. For the same compound, the figures for the deltaG in experiment [4] and in experiment [10] were -8.48 kcal/mol and -9.2 kcal/mol, respectively. The figures for the ΔTm in [5] and in experiment [12] were 7.7 °C and 0.7 °C, respectively. For the same compound, the IC50 in experiment [7] is 120 nM. Also, the Kd in experiment [8] was 600 nM; in experiment [9], 180 nM. In addition, the inhibition in experiment [11] worked out at 96%.

For `Nc1ncnc2c1ncn2[C@@H]1O[C@H](CSCCC(=O)N[C@@H](Cc2c[nH]cn2)C(=O)O)[C@@H](O)[C@H]1O`, the ΔTm in experiment [5] came to 1.7 °C. The inhibition in experiment [11] was < 20%.

Regarding `Nc1ncnc2c1ncn2[C@@H]1O[C@H](CSCCCNC(=O)[C@H](N)Cc2c[nH]cn2)[C@@H](O)[C@H]1O`, in experiment [5], the thermal shift (ΔTm) was found to be 0.7 °C. The inhibition in experiment [11] was < 20%.

Turning to `Nc1ncnc2c1ncn2[C@@H]1O[C@H](CSCCN[C@@H](Cc2c[nH]cn2)C(=O)O)[C@@H](O)[C@H]1O`, the outcome in [1] was Active. Further, the values for the deltaH in experiment [2] and in experiment [13] were -4.25 kcal/mol and -17.8 kcal/mol, respectively. In addition, the -TdeltaS in [3] was 7.72 kcal/mol; in [6], -4.84 kcal/mol. Further, the deltaG is -9.1 kcal/mol in experiment [4] and -10.1 kcal/mol in experiment [10]. For the same compound, the values for the ΔTm in experiment [5] and in experiment [12] were 8.4 °C and 1 °C, respectively. Moreover, the IC50 in [7] was 60 nM. The Kd in experiment [8] was found to be 220 nM; in experiment [9] it was 41 nM. The inhibition in experiment [11] amounted to 92%.

For `COc1nc(N)c2ncn([C@@H]3O[C@H](CSCCCN[C@@H](Cc4c[nH]cn4)C(=O)O)[C@@H](O)[C@H]3O)c2n1`, in experiment [12], the ΔTm stood at 4.7 °C.

On to `Nc1nc(Cl)nc2c1ncn2[C@@H]1O[C@H](CSCCN[C@@H](Cc2c[nH]cn2)C(=O)O)[C@@H](O)[C@H]1O`, for which the outcome in experiment [14], in [17] and in experiment [19] was inactive. In addition, the result in [1] was Active. Besides, the inhibition result in experiment [15], in experiment [16] and in experiment [18] was “Active” each time. In addition, the -TdeltaS in experiment [3] is 0.448 kcal/mol. In [7], the half-inhibitory concentration (IC50) is ~60 nM. In [9], the dissociation constant Kd came out at 21 nM. Also, in experiment [10], the deltaG is -10.5 kcal/mol. Moreover, the ΔTm in [12] came out at 9.4 °C. In [13], the deltaH was -10.9 kcal/mol.

Regarding `CSC[C@H]1O[C@@H](n2cnc3c(N)ncnc32)[C@H](O)[C@@H]1O` [METHYLTHIOADENOSINE], the deltaH was -6.63 kcal/mol in experiment [2] and -23.3 kcal/mol in [13]. Also, the -TdeltaS in [3] came out at 16.4 kcal/mol; in [6], 0.078 kcal/mol. In addition, the deltaG is -6.55 kcal/mol in [4] and -6.84 kcal/mol in experiment [10]. The Kd in experiment [8] came out at 15500 nM; in experiment [9], 10900 nM. Further, the ΔTm in experiment [20] is 3.4 °C. Further, the Tm is 59 °C in [21], 59.3 °C in experiment [22], 56.3 °C in experiment [23] and 59 °C in experiment [24].

Take `Nc1nc(Cl)nc2c1ncn2[C@@H]1O[C@H](CSCCCNC(Cc2c[nH]cn2)C(=O)O)[C@@H](O)[C@H]1O` (single isomer, unassigned): in experiment [1], the result was Active. For the same compound, in experiment [12], the ΔTm was determined as 8.4 °C.

As a reminder, the ΔTm is the shift of the melting midpoint relative to a reference. One may read the IC50 as the concentration at which inhibition is half-maximal. Usually Kd stands for the constant that tells how readily two partners part at equilibrium. As a reminder, the inhibition is the share of the control response that was lost under treatment. As a reminder, the Tm is the temperature at the midpoint of the melting transition.
